Assays:
Assay type in all cases: cell-based
[1] = system: Biofilms of Desulfovibrio longus ATCC 51456 (sessile bacteria); assay: Sessile bacteria kill in biofilms grown in Calgary Biofilm Device; conditions: 72 hours biofilm, 2 hours treatment, anaerobic
Description: (§1) Modified Baar's Medium (ATCC #1249 Broth) is used as culture medium and the medium is changed after 48 hrs of incubation.

[2] = system: Desulfovibrio longus ATCC 51456; assay: Biocidal efficacy (MBC, minimum tested biocide concentration for complete bacterial kill) against anaerobic bacteria in salt solution; conditions: 35° C., 2 hours, 10^6 to 10^7 CFU/mL; for Concentration (ppm active) for anaerobic bacteria kill, DTEA: DTEA part of the MBC for complete bacterial kill; for Concentration (ppm active) for anaerobic bacteria kill, THPS: THPS part of the MBC for complete bacterial kill
Description: The synergy indexes reported in the following examples are calculated using the following equation: Synergy Index=Ca/CA+Cb/CB
Ca: Concentration of biocide A required to achieve a certain level of bacterial kill when used in combination with B
CA: Concentration of biocide A required to achieve a certain level of bacterial kill when used alone
Cb: Concentration of biocide B required to achieve a certain level of bacterial kill when used in combination with A
CB: Concentration of biocide B required to achieve a certain level of bacterial kill when used alone.
A synergy index (SI) of 1 indicates additivity, a synergy index of less than 1 indicates synergy, and a synergy index greater than 1 indicates antagonism.
Inside an anaerobic chamber (Bactron anaerobic chamber), a deoxygenated sterile salt solution (3.1183 g of NaCl, 1.3082 mg of NaHCO3, 47.70 mg of KCl, 72.00 mg of CaCl2, 54.49 mg of MgSO4, 172.28 mg of Na2SO4, 43.92 mg of Na2CO3 in 1 L water) is inoculated with Desulfovibrio longus ATCC 51456 to a final bacterial concentration of 10^6 to 10^7 CFU/mL. […] After the treated cell suspensions are incubated at 35° C. for 2 hours, the biocidal efficacy is determined by minimum tested biocide concentration for complete bacterial kill in the aliquots (MBC).

[3] = system: Biofilms of Desulfovibrio longus ATCC 51456; assay: Biofilm removal, remaining biofilm by crystal violet staining; conditions: 2 hours treatment, optical density of biofilm captured crystal violet at 580 nm
Description: as §1
The biofilm is fixed with 99% methanol and, after air drying, the pegs are stained with 2% (w/v) crystal violet and washed with tap water. The pegs are then air dried and the crystal violet bound to the biofilm is extracted with 33% glacial acetic acid. The total remaining biofilm is determined by the optical density (OD) of the extracted solution at 580 nm.

Row | Compound | Concentration (ppm active) for 3 log10 bacterial reduction [1] | Concentration (ppm active) for anaerobic bacteria kill, DTEA [2] | Concentration (ppm active) for anaerobic bacteria kill, THPS [2] | Remaining biofilm, OD580 ([3]; 50 ppm active) | Remaining biofilm, OD580 ([3]; 100 ppm active)
1 | tetrakis(hydroxymethyl)phosphonium sulfate [THPS] | 50 ppm active | 0.00 ppm active | 19.75 ppm active | 0.57 | 0.68
2 | CCCCCCCCCCSCCN [DTEA, 2-(decylthio)ethanamine] |  | 20.00 ppm active | 0.00 ppm active |  | 

From patent US9210936B2, “Biocidal compositions and methods of use” (Dow Global Technologies LLC, priority 2011, dated 2015)
